This is an account of results in patent US8586600B2, “Heterocyclic compounds and uses thereof” (Celgene Avilomics Research, Inc., priority 2007, dated 2013).

Assay [1] addresses T1, c-KIT (V654A) (Homo sapiens (Human), UniProt P10721, V654A). Put plainly: c-Kit (V654A) Omnia assay for potency assessment (Method E). The class given is biochemical. As to conditions: [ATP]=220 μM, read-out: Mutant c-KIT (V654A) IC50 Apparent. As to the method:
(§1) Kinase reactions were started with the addition of 45 μL of the Y9 or Y12-Sox peptide substrate and monitored every 30-90 seconds for 60 minutes at λex360/λem485 in a Synergy^4 plate reader from BioTek (Winooski, Vt.).

For the next assay, the target named is PDGFR-α (Homo sapiens (Human), UniProt P16234). Kind of assay: PDGFR inhibition assay Method B (Z'-LYTE biochemical assay). As to conditions: compound at 1 μM. The text has this:
The Z'-LYTE™ biochemical assay employs a fluorescence-based, coupled-enzyme format and is based on the differential sensitivity of phosphorylated and non-phosphorylated peptides to proteolytic cleavage.

Assay [2] has as its target T2, c-KIT kinase (Homo sapiens (Human), UniProt P10721). Kind of assay: cKit inhibition assay Method C (electrophoretic mobility shift). It is filed as biochemical. As to conditions: read-out: c-KIT % Inhibition. As to the method: The reaction was started by adding the ATP and incubating for 1 hour at room temperature. […] Phosphorylated and unphosphorylated substrate was separated by charge using electrophoretic mobility shift. Product formed was compared to control wells to determine inhibition or enhancement of enzyme activity.
Background: Mobility shift assays separate free from complexed probe on a gel.

In assay [3] the target is T1, c-KIT (V654A). Kind of assay: c-Kit (V654A) Omnia assay with pre-activated enzyme (Method D). As to conditions: [ATP]=100 μM, read-out: Mutant c-KIT (V654A) IC50. It is filed as biochemical. The method, then: 10× enzyme/ATP stocks were pre-incubated for 30 min at room temperature to pre-activate each enzyme prior to compound exposure. […] Kinase reactions were started with the addition of 45 μL of the Y9 or Y12-Sox peptide substrate and monitored every 30-90 seconds for 60 minutes at λex360/λem485 in a Synergy^4 plate reader from BioTek (Winooski, Vt.).

For another assay, the target named is c-KIT (T670I) (Homo sapiens (Human), UniProt P10721, T670I). Put plainly: c-Kit (T670I) Omnia assay for potency assessment (Method E). It is filed as biochemical. As to conditions: [ATP]=220 μM, read-out: Mutant c-KIT (T670I) IC50 Apparent. The method, then:
as §1

Assay [4] concerns the target T2, c-KIT kinase. Kind of assay: c-KIT mass spectral analysis of tryptic digest (MALDI-TOF). As to conditions: 3 hours incubation at 10× excess of compound. The class given is binding. The method, then:
Iodoacetamide was used as the alkylating agent after compound incubation. […] For tryptic digests a 5 μl aliquot (14 pmols) was diluted with 10 ul of 0.1% TFA prior to micro C18 Zip Tipping directly onto the MALDI target using alpha cyano-4-hydroxy cinnamic acid as the matrix (5 mg/ml in 0.1% TFA:acetonitrile 50:50).
The tryptic digest was analyzed by mass spectrometer (MALDI-TOF).

Usually IC50 stands for the concentration that inhibits the measured activity by half. A word on the inhibition: it is the share of the control response that was lost under treatment.

Like-named read-outs stand apart in the source and are kept apart here.

T2 sequence (P10721 26-976): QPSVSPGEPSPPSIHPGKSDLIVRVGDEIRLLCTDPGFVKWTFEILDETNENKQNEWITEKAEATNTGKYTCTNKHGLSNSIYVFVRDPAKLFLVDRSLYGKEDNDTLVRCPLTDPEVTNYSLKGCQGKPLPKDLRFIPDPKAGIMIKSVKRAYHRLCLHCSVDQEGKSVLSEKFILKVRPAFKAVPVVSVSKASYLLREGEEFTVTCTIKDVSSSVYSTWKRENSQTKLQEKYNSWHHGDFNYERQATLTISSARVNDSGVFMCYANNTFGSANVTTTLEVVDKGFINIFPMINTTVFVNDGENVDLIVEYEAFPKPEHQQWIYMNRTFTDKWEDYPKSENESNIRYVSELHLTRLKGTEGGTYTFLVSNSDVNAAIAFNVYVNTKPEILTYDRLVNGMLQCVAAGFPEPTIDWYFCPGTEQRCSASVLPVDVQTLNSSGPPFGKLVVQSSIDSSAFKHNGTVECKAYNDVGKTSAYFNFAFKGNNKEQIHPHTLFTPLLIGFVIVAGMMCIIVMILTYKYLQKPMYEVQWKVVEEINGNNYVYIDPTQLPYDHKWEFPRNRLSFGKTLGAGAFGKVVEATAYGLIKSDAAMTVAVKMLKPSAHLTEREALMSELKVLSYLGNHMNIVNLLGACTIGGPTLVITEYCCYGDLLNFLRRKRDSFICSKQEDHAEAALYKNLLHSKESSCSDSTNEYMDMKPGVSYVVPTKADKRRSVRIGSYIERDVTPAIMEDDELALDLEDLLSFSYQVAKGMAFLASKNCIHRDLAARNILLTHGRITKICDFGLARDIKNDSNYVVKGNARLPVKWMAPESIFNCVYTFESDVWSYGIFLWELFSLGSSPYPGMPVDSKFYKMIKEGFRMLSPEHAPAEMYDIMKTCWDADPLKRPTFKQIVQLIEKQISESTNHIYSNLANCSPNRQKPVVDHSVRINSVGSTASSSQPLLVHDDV
T1 sequence (P10721 26-976 V654A): as the sequence (P10721 26-976) above, with V629A counted along it
Chain of c-KIT (T670I) (P10721 26-976 T670I): as the sequence (P10721 26-976) above, with T645I counted along it
Chain of PDGFR-α (P16234 24-1089): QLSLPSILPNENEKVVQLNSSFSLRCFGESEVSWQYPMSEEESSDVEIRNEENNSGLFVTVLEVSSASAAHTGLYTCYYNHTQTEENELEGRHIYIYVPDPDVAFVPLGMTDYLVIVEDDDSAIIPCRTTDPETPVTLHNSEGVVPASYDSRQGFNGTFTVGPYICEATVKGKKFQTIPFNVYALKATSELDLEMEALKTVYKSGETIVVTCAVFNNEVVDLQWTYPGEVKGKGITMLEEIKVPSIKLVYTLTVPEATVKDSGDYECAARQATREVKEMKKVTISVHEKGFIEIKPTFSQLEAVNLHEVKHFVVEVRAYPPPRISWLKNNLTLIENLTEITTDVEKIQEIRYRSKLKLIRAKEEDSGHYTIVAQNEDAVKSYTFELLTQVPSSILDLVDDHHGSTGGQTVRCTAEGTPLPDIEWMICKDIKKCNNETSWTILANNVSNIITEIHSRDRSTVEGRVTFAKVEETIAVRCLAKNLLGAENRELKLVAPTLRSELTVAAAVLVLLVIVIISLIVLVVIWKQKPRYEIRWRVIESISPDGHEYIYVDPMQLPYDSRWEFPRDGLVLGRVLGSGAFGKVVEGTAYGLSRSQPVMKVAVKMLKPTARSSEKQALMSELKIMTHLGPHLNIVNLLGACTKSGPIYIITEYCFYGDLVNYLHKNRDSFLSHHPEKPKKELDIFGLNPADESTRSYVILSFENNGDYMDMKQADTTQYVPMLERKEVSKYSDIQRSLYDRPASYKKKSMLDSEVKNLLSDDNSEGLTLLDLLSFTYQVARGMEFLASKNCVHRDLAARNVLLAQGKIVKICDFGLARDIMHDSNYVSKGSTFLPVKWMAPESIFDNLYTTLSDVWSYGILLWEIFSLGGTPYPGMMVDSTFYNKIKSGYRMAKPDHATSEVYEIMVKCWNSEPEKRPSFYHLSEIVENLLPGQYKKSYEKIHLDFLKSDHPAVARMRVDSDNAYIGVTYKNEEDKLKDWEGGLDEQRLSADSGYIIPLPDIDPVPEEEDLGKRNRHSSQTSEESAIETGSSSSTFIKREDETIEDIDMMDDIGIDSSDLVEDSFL

Regarding `C=CC(=O)Nc1ccc(C(=O)Nc2ccc(C)c(Nc3nccc(-c4cccnc4)n3)c2)cc1C(F)(F)F` [II-2], the 50% inhibitory concentration (IC50) at c-KIT (V654A) [1] came out at 83 nM. At PDGFR-α, `C/C=C/C(=O)Nc1ccc(C(=O)Nc2ccc(C)c(Nc3nccc(-c4cccnc4)n3)c2)cc1` [II-4] returned an inhibition at 1 µM of 28%. Regarding `Cc1ccc(NC(=O)c2ccc(NC(=O)/C=C/CN(C)C)cc2)cc1Nc1nccc(-c2cccnc2)n1` [II-5], at c-KIT kinase [2] (compound at 1 μM, 300 μM ATP), the inhibition at 1 µM amounted to 66%.

`C=CC(=O)NCc1ccc(C(=O)Nc2ccc(C)c(Nc3nccc(-c4cccnc4)n3)c2)cc1` [II-6, 4-(Acryloylaminomethyl)-N-[4-methyl-3-(4-pyridin-3-ylpyrimidin-2-ylamino)phenyl]benzamide]: the inhibition at 1 µM at c-KIT kinase [2] (compound at 1 μM, 300 μM ATP) was found to be 91%. `Cc1ccc(NC(=O)c2ccc(CN3C(=O)C=CC3=O)cc2)cc1Nc1nccc(-c2cccnc2)n1` [II-8, 4-(2,5-Dioxo-2,5-dihydropyrrol-1-ylmethyl)-N-[4-methyl-3-(4-pyridin-3-yl-pyrimidin-2-ylamino)-phenyl]benzamide]: the inhibition at 1 µM on c-KIT kinase [2] (compound at 1 μM, 300 μM ATP) is 78%. On the same count and under the same terms, under `Cc1ccc(NC(=O)c2ccc(NC(=O)COC(=O)c3c(Cl)cccc3Cl)cc2)cc1Nc1nccc(-c2cccnc2)n1` [II-26] stands 94%. On to `Cc1ccc(NC(=O)c2ccc(NS(=O)(=O)c3cnccc3Cl)cc2)cc1Nc1nccc(-c2cccnc2)n1` [II-40], for which, at c-KIT (V654A) [3], the IC50 stood at 10000 nM. With `Cc1ccc(NC(=O)c2ccc(NS(=O)(=O)c3ccc(Cl)nc3)cc2)cc1Nc1nccc(-c2cccnc2)n1` [II-41], the IC50 at c-KIT (V654A) [1] was determined as 173 nM. In the case of `C=CC(=O)Nc1ccc2cc(C(=O)Nc3ccc(C)c(Nc4nccc(-c5cccnc5)n4)c3)ccc2c1` [II-44, 6-Acryloylaminonaphthalene-2-carboxylic acid[4-methyl-3-(4-pyridin-3-ylpyrimidin-2-ylamino)phenyl]amide], on c-KIT kinase [2], the inhibition at 1 µM turned out to be 95%. For `Cc1ccc(NC(=O)c2ccc(NC(=O)CCl)cc2)cc1Nc1nccc(-c2cccnc2)n1` [II-53], the IC50 at c-KIT (V654A) [3] worked out at 937 nM; at c-KIT (V654A) [1], 260 nM. For `Cc1ccc(NC(=O)c2ccc(NC(=O)C(C)Cl)cc2)cc1Nc1nccc(-c2cccnc2)n1` (centres unmarked) [II-54], the IC50 on c-KIT (V654A) [3] worked out at 10000 nM. Still for that read-out and setting: the same measure for `Cc1ccc(NC(=O)c2ccc(NC(=O)/C=C/CN(C)C)c(C(F)(F)F)c2)cc1Nc1nccc(-c2cccnc2)n1` [II-55]: 9150 nM.

Consider `Cc1ccc(C(=O)Nc2ccc(NC(=O)/C=C/CN(C)C)c(C(F)(F)F)c2)cc1Nc1nccc(-c2cccnc2)n1` [III-6], for which the figures for the IC50 on c-KIT (T670I), on c-KIT (V654A) [3] and at c-KIT (V654A) [1] were 1570 nM, 3990 nM and 216 nM, respectively.

As for `Cc1ccc(C(=O)Nc2ccc(NC(=O)CCl)c(C(F)(F)F)c2)cc1Nc1nccc(-c2cccnc2)n1` [III-14], the “covalent modification of c-KIT (mass spectral analysis)” value on c-KIT kinase [4] was “covalently bound to c-KIT protein at two target cystein residues: Cys808 (minor) and Cys788 (major)”.
